We go through one compound from US20080026417A1, “ASSAYS FOR TRICHOMONAL AND OTHER HYDROLASES” (priority 2002, published 2008).

For test [1], the system named is trichomonal hydrolases. In words: Experiment 13: hydrolysis of peptide substrates by trichomonal hydrolases at low pH, no vaginal fluid. Format: biochemical, Trichomonas vaginalis. The arrangement: key: −: No red color produced; +: Clearly visible red color produced; ++: Moderately intense red color produced; +++: Very intense red color produced. The following applies: without vaginal fluid; threonine buffer pH 2.4; 2 mM substrate solution; 10 min 25° C.; Fast Garnet. Put shortly:
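Peptide substrates incubated in duplicate for 10 min at 25° C. with trichomonal hydrolase diluted 1:9 in 2 mM L-cysteine; negative controls received L-cysteine alone. SDS/acetate and Fast Garnet added, and color visually scored after 5 min on a color scale.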

For test [2], the system named is trichomonal hydrolases. Description: Experiment 13: hydrolysis of peptide substrates by trichomonal hydrolases at low pH in vaginal fluid supernatant. Particulars: Fast Garnet. Details: key: −: No red color produced; +: Clearly visible red color produced; ++: Moderately intense red color produced; +++: Very intense red color produced. The test is classed as biochemical, Trichomonas vaginalis.

Test [3] relates to endogenous hydrolases present in normal vaginal fluid. Description: Experiment 14: substrate comparison on swabs with normal vaginal fluid at low pH. The test is classed as biochemical, human. Details: key: 0: Colorless or yellow - no pink color; trace: Peach or orange; 1: Faint pink; 2-8: Intermediate intensities of pink; 8: Very intense pink/red. The following applies: Normal (n = 3); 150 mM substrate film solution; threonine pH 2.4; Fast Red; 0-9 scale. As for the experimental part:
Mixtures were made of the 400 mM substrate stock solutions, 25% hydroxy-propylcellulose solution, 200 mM L-cysteine, along with additional ethanol to a final concentration of 150-320 mM substrate, 20 mM L-cysteine, and 2-5% hydroxypropyl-cellulose. Substrate films were made by pipetting 1 μL of a mixture over a circular area approximately […] in diameter on a sheet of Mylar, and drying under a stream of dry nitrogen. The dried films were stored in a container with desiccant until used.
For each pair of vaginal fluid specimens from a donor, one swab was rubbed on one substrate film and the other swab was rubbed on a different substrate film; two substrates were compared at a time. The concentrations of the substrates varied from 150 mM to 320 mM in the solutions used to make the substrate films, but each specific comparison matched equimolar concentrations of substrates (as specified in Tables 14.1, 14.2, and 14.3 below). […] The intensity of pink color that developed on each swab after two minutes was visually scored using the 0-9 color scale presented in Table 11.1 above; fractional scores such as 1.3 were used when color intensities between swabs differed only slightly.

Test [4] deals with trichomonal hydrolases. Description: Experiment 14: substrate comparison on swabs with vaginal fluid plus trichomonal hydrolases at low pH. Format: biochemical, Trichomonas vaginalis. Particulars: threonine pH 2.4, 0-9 scale. Here is the method: For each pair of vaginal fluid specimens from a donor, one swab was rubbed on one substrate film and the other swab was rubbed on a different substrate film; two substrates were compared at a time. The concentrations of the substrates varied from 150 mM to 320 mM in the solutions used to make the substrate films, but each specific comparison matched equimolar concentrations of substrates (as specified in Tables 14.1, 14.2, and 14.3 below). In the swabs, the substrate was diluted by vaginal fluid and buffer, and the final concentration of substrate in the swab tip was estimated to be 1/60 of the concentration of substrate in the solutions used to make the films. Immediately after each swab was rubbed on a substrate film, a 35-μL drop of threonine buffer was applied to the plastic where the substrate film had been, and the swab was rubbed on the same spot again until the buffer was absorbed into the swab. The swabs were left lying on the plastic for ten minutes, then each swab was rubbed on a Fast Red or Fast Garnet film. For the comparisons between ZLR and ZVR, and between VLR-MNA and ZRRR-MNA, films made with 10 mM Fast Garnet were used; for the comparison between ZVR and VLR-MNA, films made with 70 mM Fast Red were used. The intensity of pink color that developed on each swab after two minutes was visually scored using the 0-9 color scale presented in Table 11.1 above; fractional scores such as 1.3 were used when color intensities between swabs differed only slightly. In this part of the experiment, 20 μL of trichomonal hydrolases was applied to the tip of each swab containing vaginal fluid just prior to running the assay. Otherwise, the procedure was exactly the same as for the swabs containing only vaginal fluid.

In test [5] the test system is trichomonal hydrolases. Description: Experiment 17: effect of amount of VLR-MNA on color produced by trichomonal hydrolases on swabs. The test is classed as biochemical, Trichomonas vaginalis. The following applies: 0-9 scale. Here is the method:
Solution A, containing 10% v/v trichomonal hydrolases and 2 mM L-cysteine, was prepared by mixing 20 μL of trichomonal hydrolases with 4 μl of 100 mM L-cysteine and 176 μL of water, and Solution B, containing 20% v/v trichomonal hydrolases, 5% v/v normal vaginal fluid supernatant and 2 mM L-cysteine, was prepared by mixing 40 μL of trichomonal hydrolases with 10 μL of normal vaginal fluid supernatant, 4 μL of 100 mM L-cysteine and […]. Several 35 μL drops each of Solution A, Solution B, and threonine buffer were individually pipetted onto discrete, separated areas on a sheet of Mylar. Individual cotton swabs were rubbed on a drop of either Solution A or Solution B, then on one, two or three dots of substrate, and then on a drop of buffer. After ten minutes, each swab was rubbed on an indicator film. The intensity of pink color that developed on each swab after thirty seconds was visually scored in 0.5 unit increments using the 0-9 color scale presented in Table 11.1.

Take `COc1cc(NC(=O)C(CCCN=C(N)N)NC(=O)C(CC(C)C)NC(=O)C(N)C(C)C)cc2ccccc12` [VLR-MNA, D-Val-Leu-Arg-MNA]: the “Color Score” value in test [1] was “+++”; in test [2], “+++”; in test [3] it was 0; in test [4] (Hydrolases added (n = 2), 150 mM substrate film solution, Fast Red), 2 to 2.5; in test [4] (Hydrolases added (n = 5), 200 mM substrate film solution, Fast Garnet), 1 to 4; in test [5] (Solution A (10% trichomonal hydrolases, no vaginal fluid), One dot of Substrate) it was 5.5. Further, the Color Score in test [5] (Solution A, Three dots of Substrate) is given as 9; in test [5] (Solution A, Two dots of Substrate) it was 7; in test [5] (Solution B (20% trichomonal hydrolases, 5% normal vaginal fluid supernatant), One dot of Substrate), 2.5; in test [5] (Solution B, Three dots of Substrate), 5.5; in test [5] (Solution B, Two dots of Substrate), 4.
